Data on two compounds can be found in publication PMC8316002, “Inhibition of Escherichia coli Lipoprotein Diacylglyceryl Transferase Is Insensitive to Resistance Caused by Deletion of Braun’s Lipoprotein” (Journal of Bacteriology, 2021).

Values after ≈ are worked out from the molar mass of the structure shown. A value given as a limit tells only on which side of the number the result lay.

In one assay the test system is LspA. The conditions noted are these: LspA inhibitor globomycin; cited from earlier work. The source says:
Using a combination of biochemical and genetic strategies, we believe the Lgt inhibitor G2824 identified in this study inhibits bacterial cell growth through inhibition of the diacylglyceryl transferase activity of Lgt. First, G2824 was identified using a specific Lgt binding assay and confirmed to inhibit Lgt enzymatic function in vitro. Second, the results generated from pharmacologic inhibition of Lgt by G2824 in both CFT073 and MG1655 E. coli strains are highly consistent with the genetic depletion of Lgt, strongly arguing against off-target effects as a main cause of G2824 bactericidal ac ...

For the next assay, the system named is CFT073 imp4213. The assay can be described thus: Western blot of Lpp forms. To be noted: 0.5× MIC, 30 min. The class given is cell-based, E. coli. As for the experimental part: Bacterial cell samples normalized for equivalent OD600 and resuspended in BugBuster lysis buffer (Fischer Scientific) with the addition of sample buffer (LI-COR), and proteins were separated by SDS-PAGE using 16% Tricine protein gels or NuPAGE 4% to 20% bis-Tris gels (Thermo Fisher Scientific), transferred to nitrocellulose membranes using the iBlot 2 dry blotting system (Invitrogen), and blocked using LI-COR blocking buffer for 30 min. Unless stated otherwise, loading buffer with reducing agents was added and samples were not boiled prior to SDS-PAGE. For the sucrose gradient centrifugation, samples were boiled prior to running the SDS-PAGE. Primary antibodies were used at a final concentration of 1 μg/ml with some exceptions: rabbit anti-Lpp polyclonal antibody (0.1 μg/ml), murine anti-Pal 6D7 antibody (0.5 μg/ml), rabbit anti-GroEL antibody (1:10,000 final dilution), and rabbit anti-OmpA antibody (1:50,000 final dilution). The secondary antibodies were all obtained from LI-COR and used as per manufacturer’s instructions. Images were collected using the Odyssey CLx imaging system (LI-COR) and analyzed by Image Studio Lite.

Another assay has as its system cells expressing lppΔK. The assay can be described thus: Time-kill, CFT073 imp4213 Δlpp complemented with lpp or lppΔK. To be noted: 12.5 μM G2824 or 3.2 μM globomycin; CFU; lppΔK (unable to link to PGN) versus WT lpp. The class given is cell-based, E. coli. The source says: To determine if loss of PGN linkage of Lpp leads to increased G2824 bactericidal activity, we treated CFT073 imp4213 Δlpp cells complemented with either WT lpp or a mutant form that is unable to covalently link to PGN (lppΔK). Using the previously described SDS fractionation protocol, we confirmed that while WT Lpp localized to both PAP and non-PAP fractions, the LppΔK mutant was primarily detected in the non-PAP fraction (see Fig. S5A). As we noted earlier, PGN-linked DGPLP (§) and other PGN-linked Lpp forms (†) were primarily detectable in the PAP fraction (Fig. S5A).
Unless stated otherwise, E. coli cells were grown in Luria-Bertani (LB) medium (0.5% yeast extract, 1% tryptone, 0.5% NaCl) at 37°C. […] Growth of MG1655 inducible deletion strains was measured by culturing in the presence of 2-fold dilutions of arabinose (starting arabinose concentrations for CFT073 and MG1655 inducible deletion strains were 4% and 0.8%, respectively). While 2% arabinose was sufficient for WT growth of MG1655 Δlgt, 4% arabinose was used for CFT073 Δlgt based on comparing its growth to that of WT CFT073 as measured by CFU. OD600 growth measurements were performed using an EnVision 2101 multilabel reader plate reader (PerkinElmer) linked with Echo liquid handler (Labcyte). […] Bacterial viability at different time points during the treatment was measured by enumerating CFU. […]

Assay [1] relates to CFT073 Δlgt. The assay can be described thus: MIC assay, CFT073 Δlgt, Lgt 0.25% Ara. The class given is cell-based, E. coli. The conditions noted are these: Escherichia coli. As for the experimental part: (§1) Unless stated otherwise, E. coli cells were grown in Luria-Bertani (LB) medium (0.5% yeast extract, 1% tryptone, 0.5% NaCl) at 37°C. Where indicated, kanamycin (Kan) was added to culture media at a 50-μg/ml final concentration. MIC assays were performed based on Clinical and Laboratory Standards Institute (CLSI) guidelines. For in vitro growth curves, overnight cultures of WT CFT073, CFT073 Δlgt, and CFT073 Δlgt complemented with lgt from E. coli (lgt^Ec) or P. aeruginosa (lgt^Pa) were grown to mid-exponential phase (optical density at 600 nm [OD600] of 0.6) and then diluted to an OD600 of 0.1 to initiate growth curves. At various times, culture aliquots were diluted and plated in dilutions on LB+Kan agar, and CFU were enumerated in duplicates. Growth of MG1655 inducible deletion strains was measured by culturing in the presence of 2-fold dilutions of arabinose (starting arabinose concentrations for CFT073 and MG1655 inducible deletion strains were 4% and 0.8%, respectively). While […] was sufficient for WT growth of MG1655 Δlgt, 4% arabinose was used for CFT073 Δlgt based on comparing its growth to that of WT CFT073 as measured by CFU. OD600 growth measurements were performed using an EnVision 2101 multilabel reader plate reader (PerkinElmer) linked with Echo liquid handler (Labcyte). For time-kill experiments, bacteria were harvested in mid-exponential phase and treated with 12.5 μM G2824, 3.2 μM globomycin, and 1.6 μM vancomycin. CFU were enumerated at various times posttreatment. Bacterial culture medium containing 2% arabinose was used to induce lpp or lppΔK expression from pBad24 plasmids. Bacterial viability at different time points during the treatment was measured by enumerating CFU. Serum killing assays were carried out as previously described ([17]).

Assay [2] deals with CFT073 Δlgt. Put plainly: MIC assay, CFT073 Δlgt, Lgt 4% Ara. The class given is cell-based, E. coli. The conditions noted are these: Escherichia coli. As for the experimental part: as §1

Turning to `CCCCCC[C@H]1OC(=O)CNC(=O)[C@H]([C@H](C)O)NC(=O)[C@H](CO)NC(=O)[C@H]([C@H](C)CC)NC(=O)[C@H](CC(C)C)N(C)C(=O)[C@@H]1C` [Globomycin], the on-target resistance mutations entry in the assay with LspA is reported as “no on-target resistance mutations have ever been identified”. Further, the “accumulation of Lpp forms” value in the assay on CFT073 imp4213 is “accumulation of DGPLP and other PGN-linked Lpp forms”. In addition, the “effect of lppΔK on bactericidal killing” value with cells expressing lppΔK is reported as “completely resistant”.
For `CN[C@H](CC(C)C)C(=O)N[C@H]1C(=O)N[C@@H](CC(N)=O)C(=O)N[C@H]2C(=O)N[C@H]3C(=O)N[C@H](C(=O)N[C@H](C(=O)O)c4cc(O)cc(O)c4-c4cc3ccc4O)[C@H](O)c3ccc(c(Cl)c3)Oc3cc2cc(c3O[C@@H]2O[C@H](CO)[C@@H](O)[C@H](O)[C@H]2O[C@H]2C[C@](C)(N)[C@H](O)[C@H](C)O2)Oc2ccc(cc2Cl)[C@H]1O` [Vancomycin], the figures for the MIC in the assay on CFT073 Δlgt [1] and against CFT073 Δlgt [2] were 12.5 µM (≈ 18.1 µg/mL) and above 100 µM, respectively.
